Source: PMC7479175, “Selection of Potent Inhibitors of Soluble Epoxide Hydrolase for Usage in Veterinary Medicine” (Frontiers in Veterinary Science, 2020)
Read-outs that look alike come from different tables or passages of the source.

Key:
[1] = test system: horses with chronic laminitis; settings: 0.1–1 mg/kg i.v., ref [11]–[13]; cited from earlier work
[2] = Solubility of inhibitors in different solvents; format: physicochemical; settings: thermodynamic from solid
Procedure: The un-dissolved compounds were filtered through a 0.22 μm centrifuge filter at 30 or 40°C and the supernatant further diluted 10-fold with methanol. The concentration of t-TUCB in the samples was determined by LC/MS/MS analysis as previously described ([15]).

dogs with osteoarthritis = test system: dogs with osteoarthritis; design: method as in PMID 31214021; settings: ref [14]; cited from earlier work

O=C(Nc1ccc(OC(F)(F)F)cc1)N[C@H]1CC[C@H](Oc2ccc(C(=O)O)cc2)CC1 [1,728, trans-4-{4-[3-(4-trifluoromethoxy-phenyl)-ureido]-cyclohexyloxy}-benzoic acid]
adverse effects [1]: without observed adverse effects | reduction in pain [1]: significant and rapid reduction in pain | solubility at 24 h ([2]; aqueous buffer, Phosphate Buffer (0.1 M pH 7.4), 30°C, read-out: Solubility): 0.011 mM | solubility at 24 h ([2]; aqueous buffer, Phosphate Buffer (0.1 M pH 7.4), 40°C, read-out: Solubility in mg/mL): 0.01 mg/mL | solubility at 24 h ([2]; aqueous with cosolvent or surfactant or cyclodextrin, Tween 80, 30°C, read-out: Solubility): 18 mM | solubility at 24 h ([2]; aqueous with cosolvent or surfactant or cyclodextrin, Tween 80, 40°C, read-out: Solubility): 34 mM | solubility at 24 h ([2]; oil or lipid, Oleic rich oil, 30°C, read-out: Solubility): 0.31 mM | solubility at 24 h ([2]; oil or lipid, Oleic rich oil, 30°C, read-out: Solubility in mg/mL): 0.13 mg/mL | solubility at 24 h ([2]; oil or lipid, Oleic rich oil, 40°C, read-out: Solubility in mg/mL): 0.1 mg/mL | solubility at 24 h ([2]; organic solvent or mixture, Carbitol, 30°C, read-out: Solubility): 83 mM | solubility at 24 h ([2]; organic solvent or mixture, Carbitol, 30°C, read-out: Solubility in mg/mL): 37 mg/mL | solubility at 24 h ([2]; organic solvent or mixture, DMSO, 30°C, read-out: Solubility): 299 mM | solubility at 24 h ([2]; organic solvent or mixture, DMSO, 30°C, read-out: Solubility in mg/mL): 131 mg/mL | solubility at 24 h ([2]; organic solvent or mixture, DMSO, 40°C, read-out: Solubility): 580 mM | solubility at 24 h ([2]; organic solvent or mixture, DMSO, 40°C, read-out: Solubility in mg/mL): 254 mg/mL | solubility at 24 h ([2]; organic solvent or mixture, Ethanol, 30°C, read-out: Solubility): 9 mM | solubility at 24 h ([2]; organic solvent or mixture, Ethanol, 30°C, read-out: Solubility in mg/mL): 4 mg/mL | solubility at 24 h ([2]; organic solvent or mixture, Ethanol, 40°C, read-out: Solubility): 32 mM | solubility at 24 h ([2]; organic solvent or mixture, Ethanol, 40°C, read-out: Solubility in mg/mL): 14 mg/mL | solubility at 24 h ([2]; organic solvent or mixture, Glycerol, 30°C, read-out: Solubility): 0.13 mM | solubility at 24 h ([2]; organic solvent or mixture, Glycerol, 30°C, read-out: Solubility in mg/mL): 0.06 mg/mL | solubility at 24 h ([2]; organic solvent or mixture, Glycerol, 40°C, read-out: Solubility): 0.41 mM | solubility at 24 h ([2]; organic solvent or mixture, Glycerol, 40°C, read-out: Solubility in mg/mL): 0.18 mg/mL | solubility at 24 h ([2]; organic solvent or mixture, PEG200, 30°C, read-out: Solubility): 195 mM | solubility at 24 h ([2]; organic solvent or mixture, PEG200, 30°C, read-out: Solubility in mg/mL): 85 mg/mL | solubility at 24 h ([2]; organic solvent or mixture, PEG200, 40°C, read-out: Solubility): 207 mM | solubility at 24 h ([2]; organic solvent or mixture, PEG200, 40°C, read-out: Solubility in mg/mL): 91 mg/mL | solubility at 24 h ([2]; organic solvent or mixture, PEG300, 40°C, read-out: Solubility): 254 mM | solubility at 24 h ([2]; organic solvent or mixture, PEG300, 40°C, read-out: Solubility in mg/mL): 111 mg/mL | solubility at 24 h ([2]; organic solvent or mixture, PEG400, 30°C, read-out: Solubility): 40 mM | solubility at 24 h ([2]; organic solvent or mixture, PEG400, 30°C, read-out: Solubility in mg/mL): 18 mg/mL | solubility at 24 h ([2]; organic solvent or mixture, PEG400, 40°C, read-out: Solubility): 57 mM | solubility at 24 h ([2]; organic solvent or mixture, PEG400, 40°C, read-out: Solubility in mg/mL): 25 mg/mL | solubility at 24 h ([2]; organic solvent or mixture, Propylene glycol, 30°C, read-out: Solubility): 9 mM | solubility at 24 h ([2]; organic solvent or mixture, Propylene glycol, 30°C, read-out: Solubility in mg/mL): 4 mg/mL | solubility at 24 h ([2]; organic solvent or mixture, Propylene glycol, 40°C, read-out: Solubility): 14 mM | solubility at 24 h ([2]; organic solvent or mixture, Propylene glycol, 40°C, read-out: Solubility in mg/mL): 6 mg/mL | solubility at 24 h ([2]; organic solvent or mixture, Tween 80, 30°C, read-out: Solubility in mg/mL): 8 mg/mL | solubility at 24 h ([2]; organic solvent or mixture, Tween 80, 40°C, read-out: Solubility in mg/mL): 15 mg/mL | solubility at 24 h ([2]; organic solvent or mixture, such as Carbitol and polyethylene glycol (PEG), read-out: solubility in numerous organic liquids used in the formulation of drugs): > 20 mg/mL | pain perception (dogs with osteoarthritis): able to reduce pain perception
